Values after ≈ are worked out from the molar mass of the structure shown. Where two headings read alike, the source gives them in different places.
Columns and labels:
[1] = cited from earlier work
[2] = cited from earlier work; for half-life: in vivo
physchem [3] = conditions: organic solvent or mixture, Solubility in Diethylene Glycol Monoethyl Ether
[4] = tested on: Rabbits (New Zealand White); experiment: Acute Eye Irritation/Corrosion Test in Rabbits; type: in vivo
Method: Acute Eye Irritation/Corrosion Test for Diethylene Glycol Monoethyl Ether (Transcutol HP) in Rabbits • Test Item Transcutol HP • Diluted with: Water for injection • Test System Rabbits (New Zealand White) • Total No. of Animals: 6 animals for initial test • 12 animals for confirmatory test • No. of groups: 6 Study Design:
Initial test is carried out by using one animal per group.
Irrigation was carried out after 24 hrs from the treatment and the animals are again observed for symptoms of toxicity.
Confirmatory test is carried out by using two animals per group.
The dosing methodology and irrigation procedure was same as mentioned in the initial test and the observations were found as follows: […]

[5] = Intramuscular, Intravenous and Intraocular safety studies; conditions: in vivo
[6] = Solubility of pharmaceutical actives in Diethylene glycol monoethyl ether; conditions: Diethylene glycol monoethyl ether, organic solvent or mixture, Solubility in Diethylene Glycol Monoethyl Ether
[7] = Viscosity of formulations prepared in Diethylene glycol monoethyl ether and of comparators; type: physicochemical; conditions: final solution/formulation; marketed comparators
physchem [8] = conditions: organic solvent or mixture
Method: Progesterone is dissolved in solution of 20% Benzyl alcohol giving a clear solution and add Diethylene glycol monoethyl ether with constant stirring and make the volume up to 100 ml with Diethylene glycol monoethyl ether. […] This solution is filled in 3 ml clear glass vial.

COCCCOc1ccnc(C[S+]([O-])c2nc3ccccc3[nH]2)c1C (racemic) [Rabeprazole, (RS)-2-([4-(3-methoxypropoxy)-3-methylpyridin-2-yl]methylsulfinyl)-1H-benzo[d]imidazole]
Solubility in water (descriptive) [1]: insoluble | bioavailability ([2]; enteric coated tablet): 51%

CCN[C@H]1CN(CCCOC)S(=O)(=O)c2sc(S(N)(=O)=O)cc21 [Brinzolamide]
solubility (physchem [3]): 55.6 mg/mL (≈ 145 mM)

CCOCCOCCO [Diethylene glycol monoethyl ether, 2-(2-Ethoxyethoxy)ethanol]
eye irritation, confirmatory test ([4]; 1 hr, first three groups): no test item related effects | eye irritation, confirmatory test ([4]; 1 hr, group 4 and group 5): Mild irritation | eye irritation, confirmatory test ([4]; 1 hr, group 6): severe irritation | eye irritation, initial test ([4]; 24 hr, all animals except group 6): normal | eye irritation, confirmatory test ([4]; 24 hr, group 1 to group 3): normal | eye irritation, confirmatory test ([4]; 24 hr, group 4 and group 5): mild irritation including Chemosis, lacrimation and mild pupillary constriction | eye irritation, confirmatory test ([4]; 24 hr, group 6): severe irritation | eye irritation, initial test ([4]; 24 hr, group 6): mild irritation including Chemosis and Lacrimation | ocular toxicity, summary ([4]; concentration of 100%, intra occularly): irritant but not corrosive | eye irritation, initial test ([4]; first hour, first three groups): no test item related effects | eye irritation, initial test ([4]; first hour, group 4 and 5): Mild irritation | eye irritation, initial test ([4]; first hour, group 6): moderate irritation | corrosion effect, initial test ([4]; rabbit, in vivo): no corrosion effect | ocular toxicity, summary ([4]; up to 80% of concentration): not showing any occular toxicity | safety in Intramuscular, Intravenous and Intraocular studies [5]: safe and non toxic | Solubility in water (descriptive) [1]: soluble

C[C@H]1O[C@@H](O[C@H]2[C@@H](O)C[C@H](OC3CC[C@@]4(C)[C@H](CC[C@@H]5[C@@H]4C[C@@H](O)[C@]4(C)[C@@H](C6=CC(=O)OC6)CC[C@]54O)C3)O[C@@H]2C)C[C@H](O)C1OC1C[C@H](O)[C@H](O)[C@@H](C)O1 (stereo partly drawn) [Digoxin, (3β, 5β,12β)-3-[(O-2,6-dideoxy-β-D-ribo-hexopyranosyl-(1→4)-O-2,6-dideoxy-β-D-ribo-hexopyranosyl-(1→4)-2,6-dideoxy-β-D-ribo-hexopyranosyl)oxy]-12,14-dihydroxy-card-20(22)-enolide]
half-life [2]: about 36 hours

COc1cc([C@@H]2c3cc4c(cc3[C@@H](O[C@@H]3O[C@@H]5CO[C@@H](C)O[C@H]5[C@H](O)[C@H]3O)[C@H]3COC(=O)[C@H]23)OCO4)cc(OC)c1O [Etoposide, 4′-demethylepipodophyllotoxin 9-[4,6-0-(R)-ethylidene-β-D-glucopyranoside]]
solubility (physchem [3]): 30 mg/mL (≈ 51 mM) | Solubility in water (descriptive) [1]: sparingly soluble

C[C@]12CC[C@@H]3c4ccc(O)cc4C[C@@H](CCCCCCCCC[S+]([O-])CCCC(F)(F)C(F)(F)F)[C@H]3[C@@H]1CC[C@@H]2O (stereo partly drawn) [Fulvestrant, 7-alpha-[9-(4,4,5,5,5-pentafluoropentylsulphinyl)nonyl]estra-1,3,5-(10)-triene-3,17beta-diol]
Solubility in water (descriptive) [1]: practically insoluble | solubility [6]: 58.8 mg/mL (≈ 96.9 mM)

O=C(CCCN1CCC(O)(c2ccc(Cl)cc2)CC1)c1ccc(F)cc1 [Haloperidol, 4-[4-(p-chlorophenyl)-4-hydroxypiperidino]-4′-fluorobutyrophenone]
solubility (physchem [3]): 8.3 mg/mL (≈ 22.1 mM) | solubility in water [1]: 1.4 mg/100 ml | solubility in 0.1 N hydrochloric acid ([1]; with heating): 3 mg/mL (≈ 7.98 mM)

CCOC(=O)O[C@]1(C(=O)OCCl)CC[C@H]2[C@@H]3CCC4=CC(=O)C=C[C@]4(C)[C@H]3[C@@H](O)C[C@@]21C [Loteprednol]
solubility (physchem [3]): 25 mg/mL (≈ 53.5 mM) | solubility in water [1]: 8 μg per 1t

CC(=O)O[C@H]1C(=O)[C@@]2(C)[C@H]([C@H](OC(=O)c3ccccc3)[C@]3(O)CC(OC(=O)[C@H](O)[C@@H](NC(=O)c4ccccc4)c4ccccc4)C(C)=C1C3(C)C)[C@]1(OC(C)=O)CO[C@@H]1C[C@@H]2O (stereo partly drawn) [Paclitaxel, (2α,4α,5β,7β,10β,13α)-4,10-bis(acetyloxy)-13-{[(2R,3S)-3-(benzoylamino)-2-hydroxy-3-phenylpropanoyl]oxy}-1,7-dihydroxy-9-oxo-5,20-epoxytax-11-en-2-yl benzoate]
solubility (physchem [3]): 23.8 mg/mL (≈ 27.9 mM) | Solubility in water (descriptive) [1]: insoluble

CN1C(C(=O)Nc2ccccn2)=C(O)c2ccccc2S1(=O)=O [Piroxicam, (8E)-8-[hydroxy-(pyridin-2-ylamino)methylidene]-9-methyl-10,10-dioxo-10λ6-thia-9-azabicyclo[4.4.0]deca-1,3,5-trien-7-one]
Viscosity [7]: 3.365 cps

CC(=O)[C@H]1CC[C@H]2[C@@H]3CCC4=CC(=O)CC[C@]4(C)[C@H]3CC[C@]12C [Progesterone, pregn-4-ene-3,20-dione]
solubility (physchem [8]): ≤ 100 mg/mL | solubility in water ([1]; at 19° C.): < 0.1 g/100 ml | Solubility in water (descriptive) [1]: insoluble

CC(C)c1cccc(C(C)C)c1O [Propofol, 2,6-diisopropylphenol]
Viscosity [7]: less than 5 cps

CCCCC[C@H](O)/C=C/[C@H]1[C@H](O)CC(=O)[C@@H]1CCCCCCC(=O)O [Prostaglandin E1 (Alprostadil), (11α,13E,15S)-11,15-dihydroxy-9-oxoprost-13-en-1-oic acid]
solubility (physchem [3]): 50 mg/mL (≈ 141 mM) | solubility in double distilled water ([1]; at 35° C.): 8000 micrograms per 100 milliliter

CN(C/C=C/C#CC(C)(C)C)Cc1cccc2ccccc12 [Terbinafine, [(2E)-6,6-dimethylhept-2-en-4-yn-1-yl](methyl)(naphthalen-1-ylmethyl)amine]
Solubility in water (descriptive) [1]: slightly soluble | solubility [6]: 16.7 mg/mL (≈ 57.2 mM)

C[C@]12CC[C@H]3[C@@H](CCC4=CC(=O)CC[C@@]43C)[C@@H]1CC[C@@H]2OC(=O)CCC1CCCC1 [Testosterone Cypionate, androst-4-en-3-one, 17-(3-cyclopentyl-1-oxopropoxy)-, (17β)-]
Viscosity [7]: less than 7 cps | solubility (physchem [3]): 50 mg/mL (≈ 121 mM)

CCCCCCC(=O)O[C@H]1CC[C@H]2C3CCC4=CC(=O)CCC4(C)[C@H]3CCC12C (stereo partly drawn) [Testosterone Enanthate, Testosterone enanthate]
solubility (physchem [3]): 55.5 mg/mL (≈ 139 mM) | Solubility in water (descriptive) [1]: insoluble

C[C@]12CC[C@H]3[C@@H](CCC4=CC(=O)CC[C@@]43C)[C@@H]1CC[C@@H]2O [Testosterone]
Solubility in water (descriptive) [1]: practically insoluble | half-life [2]: 2 to 4 h

NC[C@H]1O[C@H](O[C@H]2[C@H](O)[C@@H](O[C@H]3O[C@H](CO)[C@@H](O)[C@H](N)[C@H]3O)[C@H](N)C[C@@H]2N)[C@H](N)C[C@@H]1O [Tobramycin]
Solubility in water (descriptive) [1]: Soluble | solubility [6]: 3 mg/mL (≈ 6.42 mM)

CCOC(=O)C1=C[C@]2(CC)CCCN3CCc4c(n1c1ccccc41)[C@@H]32 [Vinpocetine]
Solubility in water (descriptive) [1]: Soluble in DMSO, DMF, ethanol, acetic acid, acetone, and chloroform. Insoluble in water. | solubility [6]: 12 mg/mL (≈ 34.2 mM)

C[C@@H](c1ncncc1F)[C@](O)(Cn1cncn1)c1ccc(F)cc1F [Voricanozole, (2R,3S)-2-(2,4-difluorophenyl)-3-(5-fluoropyrimidin-4-yl)-1-(1H-1,2,4-triazol-1-yl)butan-2-ol]
Viscosity [7]: 2.977 cps
